Source: patent US4317768A, “Dihydropyridine derivatives as stabilizers for vinyl chloride polymers” (priority 1977, dated 1982)
Each block holds one compound with its values, some of them ahead of it.

Key:
[1] = Comparison with 1,4-butanediol-β-aminocrotonate and methyl-β-aminocrotonate, rigid co-polymer, 185° C.; settings: 0.5 part
Procedure: (a) Comparison with 1,4-butanediol-β-aminocrotonate and with methyl-β-aminocrotonate.
The following rigid co-polymer was prepared:
(§1) The sheets were heated in a ventilated oven at 185° C. and the following results were obtained: […]

[2] = Photostabilizing power, PVC plates exposed to the sun, GARDNER scale
Procedure: (§2) The photostabilizing power of the compounds of the invention was studied by exposing to the sun polyvinyl chloride plates which had been stabilized either by a dihydropyridine of the invention or by 2-phenyl-indole, or again by 2-(3'-methoxy-4'-hydroxy)-indole. This last product is an extremely valuable thermostabilizer for thermoplastic resins and is described in British Pat. No. 1,489,685.
(§3) The resin given hereunder was prepared by mixing on cylinders at 160° C.:
(§4) The plates of stabilized polyvinyl chloride, together with a plate which had not been stabilized, were stood in the sun under the same conditions and at the same time. Their colour was measured after 6 hours and 12 hours of exposure.
(§5) The coloration of the plates was determined according to two methods:
On the plates themselves, following the GARDNER scale, as in the section on thermostability,
The sign + means that the coloration lies between the lower unit and the upper half-unit. Thus, 3+ means that the coloration lies between 3 and 3.5. Similarly, the sign - means that the coloration lies between the lower half-unit and the upper unit.

[3] = Photostabilizing power, tetrahydrofuran solution of plates exposed to the sun, French Pharmacopeia
Procedure: as §2, §3, §4, §5
On a solution of these plates in tetrahydrofuran, the coloration of th solution being measured according to the French Pharmacopeia (IXth edition, II-338).

[4] = Polarographic study of the oxidation potential; type: physicochemical; settings: acetonitrile, 0.1 M lithium perchlorate, vitrous carbon electrode, calomel reference
Source text: By a polarographic study of their oxidation potential, compared to well-known antioxidants such as 2,6-diterbutyl-4-methyl-phenol, 2-terbutyl-4-methoxy-phenol, 4-methoxy-phenol and hydroquinone.
Reference electrode: Calomel electrode containing a saturated solution of anhydrous lithium perchlorate as bridge liquid.
Working electrode: Vitrous carbon rotating electrode (2,500 r.p.m.)
Counter-electrode: Platinum electrode
Acetonitrile containing less than 0.1% of water and presenting no polarographic waves between -2.5 V and +2.5 V.
Anhydrous lithium perchlorate containing less than 1% of water.
A 0.1 M solution of lithium perchlorate in acetonitrile, treated and preserved on a 4 A molecular sieve.
Amplitude of exploration: 0 to 2 V
Speed of exploration: 10 mV/second
Sensitivity: 1.25 μA to 50 μA
Mean concentration: about 0.3×10^-3 mol/liter
Between each measurement, the vitrous carbon electrode and the platinum electrode were carefully cleaned with Joseph paper.

[5] = Photostabilizing power, sheets exposed to the sun, co-polymer (a)
Procedure: (§6) The sheets were exposed to the sun and their colorations were also determined according to the GARDNER method.

[6] = Comparison with stabilizer G1, rigid co-polymer, 0.5 part, 185° C.
Source text: (b) Comparison with stabilizer G1
Stabilizer G1 is a mixture of 1,4-butanediol-β-aminocrotonate and of β-aminocrotonate of alcohols containing from 16 to 18 carbon atoms.

[7] = Static thermostability (GARDNER method), rigid PVC sheets, 210° C., 0.3 part stabilizer
Procedure: This study was carried out according to the GARDNER method, described in British Pat. No. 1,489,685.
The reference substance was 2-phenyl-indole, a well-known and widely used stabilizer.
The stabilizer (dihydropyridine or 2-phenyl-indole) and the other usual ingredients were mixed with powdered vinyl resins and the mixtures were calendered at a temperature of 160° C. to give rigid sheets.
The sheets were then heated in a thermostated oven (185° C. or 210° C.) for different intervals of time until incipient carbonization.
The coloration of the samples was compared to a standard scale of coloration, known as the GARDNER scale and was expressed in terms of the reference figures of the GARDNER scale.
This study was carried out with the following resin:
Polyvinyl chloride resin
SL 2016 is a solution of zinc-2-ethyl-hexanoate in a mixture of hydrocarbons boiling between 158° C. and 184° C.
The first trial was carried out at 210° C. with a resin containing 0.3 part by weight of stabilizer, the sheets being removed from the oven every three minutes over a period of 21 minutes.

[8] = Static thermostability (GARDNER), rigid co-polymer, 185° C.; settings: for coloration, GARDNER scale: 0.1 part
Procedure: (§7) The study of the static thermostability of vinyl co-polymers was carried out according to the GARDNER method described above and, also in a more detailed manner in British Patent No. 1,489,685.
(a) Rigid co-polymer vinyl chloride-vinyl acetate
(§8) The following compound was prepared:
as §1

[9] = Thermostability, flexible co-polymer (c), Metrastat oven 160° C.; settings: 0.3 part
Procedure: as §7
(c) Flexible co-polymer vinyl chloride-vinyl acetate
as §8
The sheets were heated in a Metrastat oven at 160° C. and the following results were obtained: […]

[10] = Photostabilizing power, sheets exposed to the sun, rigid co-polymer (b)
Procedure: as §6

[11] = Comparison with stabilizer G1, 0.3 part, 185° C.
[12] = Thermostability, flexible co-polymer (b), Metrastat oven 160° C.; settings: 0.2 part
Procedure: as §7
(b) Flexible co-polymer vinyl chloride-vinyl acetate.
as §8
The resin was allowed to gel for 5 minutes at 120° C. and the sheets were heated at 160° C. in a Metrastat oven.

[13] = Comparison with 2-phenyl-indole, vinyl chloride-vinylidene chloride co-polymer, 210° C.; settings: 0.3 part
Procedure: A second test was made using the following compound:
The sheets were heated in a ventilated oven at 210° C. and the following results were obtained: […]

[14] = Thermostability, rigid co-polymer (d), ventilated oven 210° C.; settings: 0.3 part
Procedure: as §7
(d) Rigid co-polymer vinyl chloride-vinylidene chloride
as §8
The sheets were heated in a ventilated oven at 210° C.

Compound: CC(N)=CC(=O)OCCCCOC(=O)C=C(C)N [1,4-butanediol-β-aminocrotonate, reference compound]
coloration, GARDNER scale ([1]; 0 min): 1
coloration, GARDNER scale ([1]; 2 min): 1
coloration, GARDNER scale ([1]; 4 min): 4
coloration, GARDNER scale ([1]; 6 min): 10
coloration, GARDNER scale ([1]; 8 min): 13
coloration, GARDNER scale ([1]; 10 min): 15
coloration, GARDNER scale ([1]; 12 min): 18

Compound: COc1cc(-c2cc3ccccc3[nH]2)ccc1O [2-(3'-Methoxy-4'-hydroxy-phenyl)-indole, reference compound]
Coloration of the plates GARDNER ([2]; exposure to sun 0): 1
Coloration of the plates GARDNER ([2]; exposure to sun 6h): 4
Coloration of the plates GARDNER ([2]; exposure to sun 12h): 8
Coloration of the plates FRENCH PHARMACOPEIA ([3]; exposure to sun 6h): B4 to JB4
Coloration of the plates FRENCH PHARMACOPEIA ([3]; exposure to sun 12h): B3 to JB3

Compound: COc1ccc(O)c(C(C)(C)C)c1 [2-Terbutyl-4-methoxy-phenol]
Oxidation potential [4]: 0.81 ± 0.01 volts

Oxidation potential [4]: 0.89 ± 0.01 volts
Compound: COc1ccc(O)cc1 [4-Methoxy-phenol]

Compound: CCCCOCCOC(=O)C1=C(C)NC(C)=C(C(=O)OCCOCCCC)C1 [Compound 27]
Colour in GARDNER degrees ([5]; After 24 hours): 2 GARDNER degrees
Colour in GARDNER degrees ([5]; Time 0): 1 GARDNER degrees
coloration, GARDNER scale ([6]; 0 min): 1
coloration, GARDNER scale ([6]; 2 min): 1
coloration, GARDNER scale ([6]; 4 min): 4
coloration, GARDNER scale ([6]; 6 min): 7
coloration, GARDNER scale ([6]; 8 min): 12.5
coloration, GARDNER scale ([6]; 10 min): 17
coloration, GARDNER scale ([7]; 0 min): 1
coloration, GARDNER scale ([7]; 3 min): 1
coloration, GARDNER scale ([7]; 6 min): 1
coloration, GARDNER scale ([7]; 9 min): 2
coloration, GARDNER scale ([7]; 12 min): 5
coloration, GARDNER scale ([7]; 15 min): 14
coloration, GARDNER scale ([7]; 18 min): Burnt

Compound: CC1=C(C(=O)OCCOc2ccccc2)CC(C(=O)OCCOc2ccccc2)=C(C)N1 [Compound 28]
thermostabilizing properties, in words [8]: clearly show the thermostabilizing properties
coloration, GARDNER scale ([8]; 0 min): 1
coloration, GARDNER scale ([8]; 2 min): 1
coloration, GARDNER scale ([8]; 4 min): 4
coloration, GARDNER scale ([8]; 6 min): 10
coloration, GARDNER scale ([8]; 8 min): 12
coloration, GARDNER scale ([8]; 10 min): 13
coloration, GARDNER scale ([8]; 12 min): 15
coloration, GARDNER scale ([8]; 14 min): 17
Colour in GARDNER degrees ([5]; After 24 hours): 1 GARDNER degrees
Colour in GARDNER degrees ([5]; Time 0): 1 GARDNER degrees
coloration, GARDNER scale ([9]; 0 min): 1
coloration, GARDNER scale ([9]; 10 min): 1
coloration, GARDNER scale ([9]; 20 min): 2
coloration, GARDNER scale ([9]; 30 min): 5
coloration, GARDNER scale ([9]; 40 min): 7
coloration, GARDNER scale ([9]; 50 min): 10
coloration, GARDNER scale ([9]; 60 min): 12
Colour in GARDNER degrees ([10]; After 24 hours): 3.5 GARDNER degrees
Colour in GARDNER degrees ([10]; Time 0): 1.5 GARDNER degrees
coloration, GARDNER scale ([11]; 0 min): 1
coloration, GARDNER scale ([11]; 2 min): 1
coloration, GARDNER scale ([11]; 4 min): 2
coloration, GARDNER scale ([11]; 6 min): 4
coloration, GARDNER scale ([11]; 8 min): 5
coloration, GARDNER scale ([11]; 10 min): 9
coloration, GARDNER scale ([11]; 12 min): 11
coloration, GARDNER scale ([11]; 14 min): 13
coloration, GARDNER scale ([7]; 0 min): 1
coloration, GARDNER scale ([7]; 3 min): 1
coloration, GARDNER scale ([7]; 6 min): 1
coloration, GARDNER scale ([7]; 9 min): 3
coloration, GARDNER scale ([7]; 12 min): 4
coloration, GARDNER scale ([7]; 15 min): 5
coloration, GARDNER scale ([7]; 18 min): 10
coloration, GARDNER scale ([7]; 21 min): Burnt
coloration, GARDNER scale ([12]; 0 min): 1
coloration, GARDNER scale ([12]; 30 min): 2
coloration, GARDNER scale ([12]; 40 min): 6
coloration, GARDNER scale ([12]; 50 min): 12
coloration, GARDNER scale ([12]; 60 min): 15
coloration, GARDNER scale ([13]; 0 min): 1.5
coloration, GARDNER scale ([13]; 3 min): 2
coloration, GARDNER scale ([13]; 6 min): 3
coloration, GARDNER scale ([13]; 9 min): 3.5
coloration, GARDNER scale ([13]; 12 min): 7
coloration, GARDNER scale ([13]; 15 min): 15
coloration, GARDNER scale ([1]; 0 min): 1
coloration, GARDNER scale ([1]; 2 min): 1
coloration, GARDNER scale ([1]; 4 min): 5
coloration, GARDNER scale ([1]; 6 min): 7
coloration, GARDNER scale ([1]; 8 min): 11
coloration, GARDNER scale ([1]; 10 min): 13
coloration, GARDNER scale ([1]; 12 min): 17
coloration, GARDNER scale ([14]; 0 min): 1.5
coloration, GARDNER scale ([14]; 3 min): 2
coloration, GARDNER scale ([14]; 6 min): 3
coloration, GARDNER scale ([14]; 9 min): 3.5
coloration, GARDNER scale ([14]; 12 min): 7
coloration, GARDNER scale ([14]; 15 min): 15

Compound: COC(=O)C1=C(C)NC(C)=C(C(=O)OC)C1C [Compound 29, 2,4,6-Trimethyl-3,5-dicarbomethoxy-1,4-dihydropyridine]
coloration, GARDNER scale ([7]; 0 min): 1
coloration, GARDNER scale ([7]; 3 min): 2
coloration, GARDNER scale ([7]; 6 min): 3
coloration, GARDNER scale ([7]; 9 min): 6
coloration, GARDNER scale ([7]; 12 min): 7
coloration, GARDNER scale ([7]; 15 min): 10
coloration, GARDNER scale ([7]; 18 min): 10.5
coloration, GARDNER scale ([7]; 21 min): Burnt
Coloration of the plates GARDNER ([2]; exposure to sun 6h): 3
Coloration of the plates GARDNER ([2]; exposure to sun 12h): 5
Coloration of the plates FRENCH PHARMACOPEIA ([3]; exposure to sun 0): JV6
Coloration of the plates FRENCH PHARMACOPEIA ([3]; exposure to sun 6h): JV5
Coloration of the plates FRENCH PHARMACOPEIA ([3]; exposure to sun 12h): JV4

Compound: Oc1ccc(O)cc1 [Hydroquinone]
Oxidation potential [4]: 0.83 ± 0.01 volts

Compound: COC(=O)/C=C(/C)N [Methyl-β-aminocrotonate, methyl-β-aminocrotonate, reference compound]
coloration, GARDNER scale ([1]; 0 min): 1
coloration, GARDNER scale ([1]; 2 min): 1
coloration, GARDNER scale ([1]; 4 min): 5
coloration, GARDNER scale ([1]; 6 min): 12
coloration, GARDNER scale ([1]; 8 min): 14
coloration, GARDNER scale ([1]; 10 min): 17
coloration, GARDNER scale ([1]; 12 min): 18
